# Test system: a variety of test species
# Experiment: Post-emergence herbicidal activity
# Assay type: in vivo
# Design: key to ABUTH (Abutilon theophrasti) damage score / AMARE (Amaranthus retroflexus) damage score / ALOMY (Alopecurus myosuroides) damage score / ECHCG (Echinochloa crus-galli) damage score / ZEAMX (Zea mays) damage score / SOLNI (Solanum nigrum) damage score: 0 = no damage to plant, 5 = total damage to plant
# Conditions: evaluated after 13 days
# Description: Seeds of a variety of test species were sown in standard soil in pots. After 8 days cultivation (post-emergence) under controlled conditions in a glasshouse (at 24/16° C., day/night; 14 hours light; 65% humidity), the plants were sprayed with an aqueous spray solution derived from the formulation of the technical active ingredient in acetone/water (50:50) solution containing 0.5% Tween 20 (polyoxyethelyene sorbitan monolaurate, CAS RN 9005-64-5). The test plants were then grown in a glasshouse under controlled conditions (at 24/16° C., day/night; 14 hours light; 65% humidity) and watered twice daily. After 13 days, the test was evaluated (5=total damage to plant; 0=no damage to plant, NC=not captured).
SMILES,ABUTH (Abutilon theophrasti) damage score (rate 1000 g/ha),ALOMY (Alopecurus myosuroides) damage score (rate 1000 g/ha),AMARE (Amaranthus retroflexus) damage score (rate 1000 g/ha),ECHCG (Echinochloa crus-galli) damage score (rate 1000 g/ha),SETFA (Setaria faberi) damage score (rate 1000 g/ha),ZEAMX (Zea mays) damage score (rate 1000 g/ha),SOLNI (Solanum nigrum) damage score (rate 1000 g/ha),ABUTH (Abutilon theophrasti) damage score (rate 250 g/ha),ALOMY (Alopecurus myosuroides) damage score (rate 250 g/ha),AMARE (Amaranthus retroflexus) damage score (rate 250 g/ha),ECHCG (Echinochloa crus-galli) damage score (rate 250 g/ha),SETFA (Setaria faberi) damage score (rate 250 g/ha),ZEAMX (Zea mays) damage score (rate 250 g/ha)
COC1=C(C)C(=O)N(c2cc(C(C)(C)C)ccn2)C1O (stereo not drawn) [AD40],5,5,5,5,5,3,–,–,–,–,–,–,–
"COC1=C(C)C(=O)N(c2cc(C(C)(C)C)cnn2)C1O (stereo not drawn) [BD1, 1-(5-tert-butylpyridazin-3-yl)-2-hydroxy-3-methoxy-4-methyl-2H-pyrrol-5-one]",5,4,5,5,5,1,–,–,–,–,–,–,–
CC1=C(Cl)C(O)N(c2cc(Br)ccn2)C1=O (stereo not drawn) [AA31],–,1,5,2,3,0,5,–,–,–,–,–,–
COC1=C(C)C(=O)N(c2cc(C(F)(F)F)c(-c3ccoc3)cn2)C1O (stereo not drawn) [AD124],2,2,5,2,4,0,–,–,–,–,–,–,–
COC1=C(C)C(=O)N(c2ccc(Cl)nn2)C1O (stereo not drawn) [BD3],1,1,2,1,2,0,–,–,–,–,–,–,–
CC1=C(Cl)C(O)N(c2cc(C)c(Br)cn2)C1=O (stereo not drawn) [AA10],0,1,3,1,2,1,–,–,–,–,–,–,–
COC1=C(C)C(=O)N(c2cc(C(F)(F)F)c(OC3CCC3)cn2)C1O (stereo not drawn) [AD75],–,–,–,–,–,–,–,5,4,5,2,4,1
COC1=C(C)C(=O)N(c2cc(C(F)(F)F)c(OCCc3cccs3)cn2)C1O (stereo not drawn) [AD76],–,–,–,–,–,–,–,4,2,4,1,3,1
COC1=C(C)C(=O)N(c2cc(Cl)c(-c3ccccc3)cn2)C1O (stereo not drawn) [AD70],–,–,–,–,–,–,–,4,3,5,1,3,1
"COC1=C(C)C(=O)N(c2cc(C(F)(F)F)c(Br)cn2)C1O (stereo not drawn) [AD31, 1-[5-bromo-4-(trifluoromethyl)-2-pyridyl]-2-hydroxy-3-methoxy-4-methyl-2H-pyrrol-5-one]",5,5,5,5,4,1,–,–,–,–,–,–,–
COC1=C(C)C(=O)N(c2cc(C(F)(F)F)c(OCCCF)cn2)C1O (stereo not drawn) [AD79],5,5,5,5,5,2,–,–,–,–,–,–,–
CC(C)C1=C(Cl)C(O)N(c2cc(C(F)(F)F)ccn2)C1=O (stereo not drawn) [AA42],3,1,3,0,0,1,–,–,–,–,–,–,–
COC1=C(C)C(=O)N(c2ccc(C(F)(F)F)cn2)C1O (stereo not drawn) [AD35],–,3,5,3,4,0,5,–,–,–,–,–,–
COC1=C(Cl)C(O)N(c2cc(C(C)(C)C)ccn2)C1=O (stereo not drawn) [AF1],5,2,5,4,4,1,–,–,–,–,–,–,–
COC1=C(C)C(=O)N(c2cc(C)c(-c3ccoc3)cn2)C1O (stereo not drawn) [AD113],3,2,5,2,1,1,–,–,–,–,–,–,–
CC1=C(Cl)C(O)N(c2cc(C(F)(F)F)c(Cl)cn2)C1=O (stereo not drawn) [AA26],1,2,5,3,3,0,–,–,–,–,–,–,–
COC1=C(C)C(=O)N(c2cc(C)c(-c3ccccc3)cn2)C1O (stereo not drawn) [AD63],5,3,5,3,5,1,–,–,–,–,–,–,–
COC1=C(C)C(=O)N(c2cc3c(cn2)CCCC3)C1O (stereo not drawn) [AD64],4,1,2,3,5,1,–,–,–,–,–,–,–
CC1=C(Cl)C(O)N(c2cc(C(C)(C)C)ccn2)C1=O (stereo not drawn) [AA44],1,1,3,1,2,1,–,–,–,–,–,–,–
COC1=C(C)C(=O)N(c2cc(C(F)(F)F)c(OCc3cccc(OC)c3)cn2)C1O (stereo not drawn) [AD74],3,2,5,2,5,1,–,–,–,–,–,–,–
COC1=C(C)C(=O)N(c2cc(C(F)(F)F)c(-c3cc(F)c(F)c(F)c3)cn2)C1O (stereo not drawn) [AD126],5,3,5,3,5,1,–,–,–,–,–,–,–
COC1=C(C)C(=O)N(c2cc(C(F)(F)F)c(C(=O)NCc3ccccc3)cn2)C1O (stereo not drawn) [AD98],5,4,5,4,4,1,–,–,–,–,–,–,–
CCC1=C(Cl)C(O)N(c2cc(C(F)(F)F)ccn2)C1=O (stereo not drawn) [AA43],2,1,2,5,3,1,–,–,–,–,–,–,–
COC1=C(C)C(=O)N(c2cc(C(C)(C)C)ncn2)C1O (racemic) [CD3],5,5,5,5,5,3,–,–,–,–,–,–,–
COC1=C(C)C(=O)N(c2cc(N(C)C)ncn2)C1O (racemic) [CD7],2,0,2,0,0,0,–,–,–,–,–,–,–
"COC1=C(C)C(=O)N(c2cc(C(F)(F)F)c(C=C(C)C)cn2)C1O (stereo not drawn) [AD21, 2-hydroxy-3-methoxy-4-methyl-1-[5-(2-methylprop-1-enyl)-4-(trifluoromethyl)-2-pyridyl]-2H-pyrrol-5-one]",5,2,5,5,4,0,–,–,–,–,–,–,–
COC1=C(C)C(=O)N(c2cc(C(F)(F)F)c(C(=O)NC(C)C)cn2)C1O (stereo not drawn) [AD53],5,5,5,5,5,5,–,–,–,–,–,–,–
COC1=C(C)C(=O)N(c2cc(C)c(-c3ccc([N+](=O)[O-])cc3)cn2)C1O (stereo not drawn) [AD116],2,0,5,0,1,1,–,–,–,–,–,–,–
CCN(C)c1cc(N2C(=O)C(C)=C(OC)C2O)ncn1 (racemic) [CD6],3,2,3,0,2,0,–,–,–,–,–,–,–
